# Test results published in ChEMBL document CHEMBL1140126, “Optimizing natural products by biosynthetic engineering: discovery of nonquinone Hsp90 inhibitors” (J Med Chem, 2008).
# pKd: −log10 of the molar value.
# Assays:
# [1] = Binding affinity to yeast HSP90; parameters: species or system Saccharomyces cerevisiae
# [2] = Solubility at room temperature after 6 hrs by HPLC; assay type: physicochemical
# Mus musculus [3] = experiment: Toxicity in NMRI nu/nu mouse assessed as body weight loss at 250 mg/kg/day for 5 days; assay type: organism-based; conditions: in vivo, 120 h
# [4] = Toxicity in NMRI nu/nu mouse assessed as maximum tolerated dose; assay type: organism-based; conditions: in vivo
# Mus musculus [5] = experiment: Toxicity in nude mouse xenografted with human MAXF401 cells assessed as median body weight loss at 85 mg/kg/day, ip; assay type: organism-based; parameters: route intraperitoneal; conditions: in vivo
# [6] = Antitumor activity against human MAXF401 cells xenografted in nude mouse assessed as inhibition of tumor growth at 85 mg/kg/day, ip administered alternately for 5 days with 3 days intervals assessed on day 35; assay type: functional; conditions: route intraperitoneal
# [7] = Antitumor activity against human MAXF401 cells xenografted in nude mouse assessed as inhibition of tumor growth at 42.5 mg/kg/day, ip administered alternately for 5 days with 3 days intervals assessed on day 21; assay type: functional; conditions: route intraperitoneal
# [8] = Antitumor activity against human MAXF401 cells xenografted in nude mouse assessed as inhibition of tumor growth at 50 mg/kg/day, ip administered alternately for 5 days with 3 days intervals assessed on day 28; assay type: functional; conditions: route intraperitoneal
# Mus musculus [9] = experiment: Toxicity in nude mouse xenografted with human MAXF401 cells assessed as median body weight loss on day 21 at 50 mg/kg/day, ip; assay type: organism-based; parameters: route intraperitoneal; conditions: in vivo
smiles,measurement,setting,value
CO[C@H]1C[C@H](C)[C@@H](O)c2cc(O)cc(c2)NC(=O)/C(C)=C/CC[C@H](C)[C@@H](OC(N)=O)/C(C)=C/[C@H](C)[C@H]1O,pKd,[1],8.22
CO[C@H]1[C@@H](OC)C[C@H](C)[C@@H](OC)C2=CC(=O)C=C(NC(=O)/C(C)=C/C=C\[C@H](C)[C@@H](OC(N)=O)/C(C)=C/[C@@H]1C)C2=O [MACBECIN],solubility at 6 h,[2],81 µM
CO[C@H]1C[C@H](C)Cc2cc(O)cc(c2)NC(=O)/C(C)=C/CC[C@H](C)[C@@H](OC(N)=O)/C(C)=C/[C@H](C)[C@H]1O,solubility at 6 h,[2],> 200 µM
same,Activity,Mus musculus [3],3.8%
same,MTD,[4],≥ 250 mg/kg
same,Activity,Mus musculus [5],3.2%
same,T/C,[6],45.3%
same,T/C,[7],53.9%
same,T/C,[8],35.6%
same,Activity,Mus musculus [9],4.4%
C=CCNC1=C2C[C@@H](C)C[C@H](OC)[C@H](O)[C@@H](C)/C=C(\C)[C@H](OC(N)=O)[C@@H](OC)/C=C\C=C(/C)C(=O)NC(=CC1=O)C2=O [TANESPIMYCIN],MTD,[4],50 mg/kg
